Experimental data as given in US20190367516A1 (Bayer Pharma Aktiengesellschaft, priority 2015, published 2019).
Like-named read-outs stand apart in the source and are kept apart here.

Legend:
human M2 receptor [1] = target: T1, human M2 receptor (Homo sapiens, UniProt P08172); settings: for Efficiency: boosting of the acetylcholine effect at EC20 acetylcholine concentration
T1 sequence (P08172 1-466): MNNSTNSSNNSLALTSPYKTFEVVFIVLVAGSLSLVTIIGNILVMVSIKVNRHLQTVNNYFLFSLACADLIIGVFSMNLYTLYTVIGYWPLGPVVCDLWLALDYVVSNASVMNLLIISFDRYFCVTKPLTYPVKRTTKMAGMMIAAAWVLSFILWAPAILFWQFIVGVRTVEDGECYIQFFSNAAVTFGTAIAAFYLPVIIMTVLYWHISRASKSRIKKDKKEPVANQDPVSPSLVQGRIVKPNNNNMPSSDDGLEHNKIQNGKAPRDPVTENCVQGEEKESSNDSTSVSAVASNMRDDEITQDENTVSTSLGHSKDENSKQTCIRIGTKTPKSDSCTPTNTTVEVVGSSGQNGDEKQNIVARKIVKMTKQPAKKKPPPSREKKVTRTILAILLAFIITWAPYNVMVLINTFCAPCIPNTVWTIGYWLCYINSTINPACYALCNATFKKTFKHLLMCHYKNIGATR

human M2 receptor [2] = target: T1, human M2 receptor; assay type: cell-based; settings: α >1 = positive cooperativity
anaesthetized rats = assay: Effects on the heart rate in anaesthetized rats (B-9); assay type: in vivo, rat; settings: i.v. infusion via jugular vein over 5 min, dose not given, in some cases means of several determinations
Protocol: B-9. Effects of the Test Substances on the Heart Rate in Anaesthetized Rats
Male rats of the strain (WI) WU Br from the breeder Charles River are anaesthetized initially with a 4-5% isoflurane inhalation for approx. 3 min. Subsequently, anaesthesia is maintained using a 1.5% isoflurane inhalation. For this purpose, the anaesthetized animals are fixed on a heated operating plate. By means of visual inspection and between toe reflex, the depth of anaesthesia is checked.
For the application of the test substance, an i.v. route into the jugular vein is used. A caudal to cranial skin incision is then made longitudinally and both the cervical musculature and the salivary glands are severed. The right common carotid artery is exposed and blood supply is arrested both proximally and distally. Using microinstrumentation, a TIP catheter (1.2 F) is introduced into the vessel in order to measure the arterial pressure and the heart rate.
Initially, both parameters are monitored for 10 min in the basal state without substance addition. The substances to be investigated are dissolved in suitable solvent mixtures and subsequently administered at various dosages to a group of animals in each case via the jugular vein by an infusion pump over 5 min. A solvent-treated group is used as control under the same experimental conditions. The arterial blood pressure and heart rate with substance addition is determined for 20 min. The data are registered with the PowerLab system (AD instruments) and evaluated using the LabChart program (AD instruments).
The values determined in this manner for the percentage decrease in heart rate for individual working examples are given in Table 4 below (in some cases as means of a plurality of independent individual determinations): […]

[3] = Receptor activity EC50, M2-GIRK1/4 activation test, acetylcholine at EC20, allosteric potency, in some cases mean values from two or more determinations
[4] = shift in the acetylcholine dose-response curve (Allosteric EC50 shift, GraphPad PRISM)
[5] = shift of acetylcholine dose-response curve (Allosteric EC50 shift)
[6] = Receptor activity EC50, allosteric potency at EC20 acetylcholine, M2-GIRK1/4 reporter cells, in some cases mean of two or more determinations
[7] = read-out: Efficiency, boosting of the acetylcholine effect at EC20 acetylcholine concentration, M2-GIRK1/4 reporter cells

SMILES | EC50 (human M2 receptor [1]; [3]) | Cooperativity (alpha factor) (human M2 receptor [2]; [4]) | Cooperativity (alpha factor) (human M2 receptor [2]; [5]) | Reduction in heart rate (%) (anaesthetized rats) | also measured
CC(C)(C)[C@@H](NC(=O)c1cn(-c2c(F)cc(F)cc2F)c2nc(N3C[C@@H](O)[C@H](O)C3)ccc2c1=O)C(F)(F)F [Example 349, 7-[(3R,4R)-3,4-Dihydroxypyrrolidin-1-yl]-4-oxo-N-[(2R)-1,1,1-trifluoro-3,3-dimethylbutan-2-yl]-1-(2,4,6-trifluorophenyl)-1,4-dihydro-1,8-naphthyridine-3-carboxamide] | 4 nM | 52 | – | 14% | Emax (human M2 receptor [1]; read-out: Efficiency): 100%
CCC(NC(=O)c1cn(-c2c(F)cc(F)cc2F)c2nc(N3C[C@@H](O)[C@H](O)C3)ccc2c1=O)C(F)(F)C(F)(F)F (single isomer, unassigned) [Example 523] | – | – | 41 | 15% | Emax (human M2 receptor [1]; read-out: Efficiency): 100%
O=C(NC(c1ccccc1Cl)C(F)(F)F)c1cn(-c2ccc(F)cc2F)c2nc(N3C[C@@H](O)CC3=O)ccc2c1=O (single isomer, unassigned) [Example 213] | 19 nM | 55 | – | 14% | –
O=C(N[C@@H](C1CC1)C(F)(F)F)c1cn(-c2ccc(F)cc2F)c2nc(N3C[C@@H](O)CC3=O)ccc2c1=O (single isomer, unassigned) [Example 284] | 61 nM | – | – | 11% | –
CC[C@H](NC(=O)c1cn(-c2ccc(F)cc2F)c2nc(N3C[C@@H](O)CC3=O)ccc2c1=O)C(F)(F)F [Example 174, 1-(2,4-Difluorophenyl)-7-[(4S)-4-hydroxy-2-oxopyrrolidin-yl]-4-oxo-N-[(2S)-1,1,1-trifluorobutan-2-yl]-1,4-dihydro-1,8-naphthyridine-3-carboxamide] | 113 nM | – | – | 7% | Emax (human M2 receptor [1]; read-out: Efficiency): 98.6%
O=C(NC(C(F)(F)F)C(F)(F)F)c1cn(-c2ccc(F)cc2F)c2nc(NCCF)ccc2c1=O [Example 89, 1-(2,4-Difluorophenyl)-7-[(2-fluoroethyl)amino]-N-(1,1,1,3,3,3-hexafluoropropan-2-yl)-4-oxo-1,4-dihydro-1,8-naphthyridine-3-carboxamide] | 413 nM | 20 | – | – | –
CC[C@@H](NC(=O)c1cn(-c2ccc(F)cc2F)c2nc(N3CCC(O)C3=O)ccc2c1=O)C(F)(F)F (single isomer, unassigned) [Example 226] | 83 nM | 35 | – | – | –
O=C(NC(c1c(F)cccc1F)C(F)(F)F)c1cn(-c2ccc(F)cc2F)c2nc(N3C[C@@H](O)CC3=O)ccc2c1=O (mixture of isomers) [Example 244, 1-(2,4-Difluorophenyl)-N-[1-(2,6-difluorophenyl)-2,2,2-trifluoroethyl]-7-[(4S)-4-hydroxy-2-oxopyrrolidin-1-yl]-4-oxo-1,4-dihydro-1,8-naphthyridine-3-carboxamide] | 22 nM | 58 | – | – | –
CC[C@H](NC(=O)c1cn(-c2ccc(F)cc2F)c2nc(N3CCC(O)C3)ccc2c1=O)C(F)(F)F (single isomer, unassigned) [Example 219] | 106 nM | 33 | – | – | –
CC(C)(NC(=O)c1cn(-c2c(F)cc(F)cc2F)c2nc(N3C[C@@H](O)[C@H](O)C3)ccc2c1=O)C(F)F [Example 634, N-(1,1-Difluoro-2-methylpropan-2-yl)-7-[(3R,4R)-3,4-dihydroxypyrrolidin-1-yl]-4-oxo-1-(2,4,6-trifluorophenyl)-1,4-dihydro-1,8-naphthyridine-3-carboxamide] | – | – | 48 | – | EC50 (human M2 receptor [1]; [6]): 54 nM; Emax (human M2 receptor [1]; [7]): 100%
CN(C)c1ccc2c(=O)c(C(=O)NC34CC5CC(F)(CC(F)(C5)C3)C4)cn(-c3ccc(F)cc3F)c2n1 [Example 38, 1-(2,4-Difluorophenyl)-N-(3,5-difluorotricyclo[3.3.1.1^3,7]dec-1-yl)-7-(dimethylamino)-4-oxo-1,4-dihydro-1,8-naphthyridine-3-carboxamide] | 41 nM | 14 | – | – | –
O=C(NC12CC3CC(CC(C3)C1)C2)c1cn(-c2ccc(F)cc2F)c2nc(N3CCC4(C3)CC4(F)F)ccc2c1=O (stereo not drawn) [Example 13, 7-(1,1-Difluoro-5-azaspiro[2.4]hept-5-yl)-1-(2,4-difluorophenyl)-4-oxo-N-(tricyclo[3.3.1.1^3,7]dec-1-yl)-1,4-dihydro-1,8-naphthyridine-3-carboxamide] | 71 nM | 6 | – | – | –
CC(C)CC(NC(=O)c1cn(-c2ccc(F)cc2F)c2nc(N3CC[C@H](F)C3)ccc2c1=O)C(F)(F)F (stereo partly drawn) [Example 65, 1-(2,4-Difluorophenyl)-7-[(3S)-3-fluoropyrrolidin-1-yl]-4-oxo-N-[1,1,1-trifluoro-4-methylpentan-2-yl]-1,4-dihydro-1,8-naphthyridine-3-carboxamide] | 7 nM | 36 | – | – | –

Continued, in another order:

EC50 (human M2 receptor [1]; [3]) | Cooperativity (alpha factor) (human M2 receptor [2]; [4]) | Cooperativity (alpha factor) (human M2 receptor [2]; [5]) | SMILES | Reduction in heart rate (%) (anaesthetized rats) | also measured
9 nM | 39 | – | O=C(N[C@H](C1CC1)C(F)(F)F)c1cn(-c2c(F)cc(F)cc2F)c2nc(N3C[C@@H](O)CC3=O)ccc2c1=O [Example 386, N-[(1R)-1-Cyclopropyl-2,2,2-trifluoroethyl]-7-[(4S)-4-hydroxy-2-oxopyrrolidin-1-yl]-4-oxo-1-(2,4,6-trifluorophenyl)-1,4-dihydro-1,8-naphthyridine-3-carboxamide] | 13% | –
11 nM | 13 | – | O=C(N[C@H](C1CC1)C(F)(F)F)c1cn(-c2c(F)cc(F)cc2F)c2nc(N3CCNC3=O)ccc2c1=O [Example 342, N-[(1R)-1-Cyclopropyl-2,2,2-trifluoroethyl]-4-oxo-7-(2-oxoimidazolidin-1-yl)-1-(2,4,6-trifluorophenyl)-1,4-dihydro-1,8-naphthyridine-3-carboxamide] | 10% | –
– | – | 35 | O=C(N[C@@H](C1CC1)C(F)(F)F)c1cn(-c2c(F)cc(F)cc2F)c2nc(N3C[C@@H](O)CC3=O)ccc2c1=O [Example 404, N-[(1 S)-1-Cyclopropyl-2,2,2-trifluoroethyl]-7-[(4S)-4-hydroxy-2-oxopyrrolidin-1-yl]-4-oxo-1-(2,4,6-trifluorophenyl)-1,4-dihydro-1,8-naphthyridine-3-carboxamide] | 9% | EC50 (human M2 receptor [1]; [6]): 7 nM; Emax (human M2 receptor [1]; [7]): 98.3%
– | – | 47 | CC(C)(C)[C@H](NC(=O)c1cn(-c2c(F)cc(F)cc2F)c2nc(N3C[C@@H](O)CC3=O)ccc2c1=O)C(F)(F)F [Example 504, 7-[(4S)-4-Hydroxy-2-oxopyrrolidin-1-yl]-4-oxo-N-[(2S)-1,1,1-trifluoro-3,3-dimethylbutan-2-yl]-1-(2,4,6-trifluorophenyl)-1,4-dihydro-1,8-naphthyridine-3-carboxamide] | – | EC50 (human M2 receptor [1]; [6]): 4 nM; Emax (human M2 receptor [1]; [7]): 100%
– | – | 40 | CC(C)C(NC(=O)c1cn(-c2c(F)cc(F)cc2F)c2nc(N3CCNC3=O)ccc2c1=O)C(F)(F)F (racemic) [Example 538, 4-Oxo-7-(2-oxoimidazolidin-1-yl)-N-[1,1,1-trifluoro-3-methylbutan-2-yl]-1-(2,4,6-trifluorophenyl)-1,4-dihydro-1,8-naphthyridine-3-carboxamide] | – | EC50 (human M2 receptor [1]; [6]): 7 nM; Efficiency (human M2 receptor [1]; M2-GIRK1/4 reporter cells): 100.0%
– | – | 31 | CC(C)C(NC(=O)c1cn(-c2c(F)cc(F)cc2F)c2nc(N3CCNC3=O)ccc2c1=O)C(F)(F)F (racemic) [Example 537, 4-Oxo-7-(2-oxoimidazolidin-1-yl)-N-[1,1,1-trifluoro-3-methylbutan-2-yl]-1-(2,4,6-trifluorophenyl)-1,4-dihydro-1,8-naphthyridine-3-carboxamide] | – | EC50 (human M2 receptor [1]; [6]): 10 nM; Efficiency (human M2 receptor [1]; M2-GIRK1/4 reporter cells): 92.0%
